Converted amounts (≈) assume the structure as drawn.
What was measured:
[1] = tested on: Mycobacterium tuberculosis; assay: Antibacterial activity against rifampin-resistant Mycobacterium tuberculosis after 8 to 9 days by BacT/Alert MP bottle assay; format: functional
[2] = tested on: Mycobacterium tuberculosis; assay: Antibacterial activity against isoniazid/rifampin-resistant Mycobacterium tuberculosis after 8 to 9 days by BacT/Alert MP bottle assay; format: functional

| SMILES | MIC [1] | MIC [2] |
| --- | --- | --- |
| COc1ccc(C2=Nn3c(nnc3-c3ccncc3)SC2)cc1 | 2 µg/mL (≈ 6.18 µM) | 4 µg/mL (≈ 12.4 µM) |
| O=[N+]([O-])c1ccc(C2=Nn3c(nnc3-c3ccc(Br)cc3)SC2)cc1 | 0.25 µg/mL (≈ 0.601 µM) | 2 µg/mL (≈ 4.8 µM) |
| c1ccc(C2=Nn3c(nnc3-c3ccccc3)SC2)cc1 | 2 µg/mL (≈ 6.84 µM) | 4 µg/mL (≈ 13.7 µM) |
| O=[N+]([O-])c1ccc(C2=Nn3c(Cc4ccc5ccccc5c4)nnc3SC2)cc1 | 4 µg/mL (≈ 9.96 µM) | 4 µg/mL (≈ 9.96 µM) |
| O=[N+]([O-])c1ccc(C2=Nn3c(nnc3-c3ccncc3F)SC2)cc1 | 2 µg/mL (≈ 5.61 µM) | 4 µg/mL (≈ 11.2 µM) |
| Fc1ccc(-c2nnc3sc(COc4ccccc4)nn23)cc1 | 8 µg/mL (≈ 24.5 µM) | 8 µg/mL (≈ 24.5 µM) |
| Brc1ccc(-c2nnc3n2N=C(c2ccccc2)CS3)cc1 | 1 µg/mL (≈ 2.69 µM) | 2 µg/mL (≈ 5.39 µM) |
| NNC(=O)c1ccncc1 [ISONIAZID] | 1 µg/mL (≈ 7.29 µM) | 4 µg/mL (≈ 29.2 µM) |
| CO[C@H]1/C=C/O[C@@]2(C)Oc3c(C)c(O)c4c(O)c(c(/C=N/N5CCN(C)CC5)c(O)c4c3C2=O)NC(=O)/C(C)=C\C=C\[C@H](C)[C@H](O)[C@@H](C)[C@@H](O)[C@@H](C)[C@H](OC(C)=O)[C@@H]1C [RIFAMPIN] | 16 µg/mL (≈ 19.4 µM) | ≥ 16 µg/mL |

From ChEMBL document CHEMBL3875182 (Bioorg Med Chem, 2017)
